The text below walks through data of US8007921B2, “Gypsum board containing antimicrobial and antibacterial compounds” (Quick-Med Technologies, Inc., priority 2003, dated 2011).

One data set deals with S. aureus bacteria. Briefly: zone of inhibition of extract solutions on agar culture plate. Type of data set: cell-based. How it is done:
A nonwoven rayon gauze material (SofWick, a commercially available rayon gauze material manufactured by Johnson & Johnson) was graft polymerized with diallyldimethylammonium chloride (DADAMC) to 10 weight % poly(DADMAC), to form the cationic cellulose surface. Each gauze substrate treated in this manner measured approximately 40 square inches. One gram samples of cationic cellulose prepared in this manner (sample K), and untreated SofWick (sample L) were each soaked overnight in 25 ml of 0.5% SP solution. Samples were removed and squeezed to remove excess liquid. Samples were then washed in 25 mL of distilled water for one hour with agitation, and then squeezed to remove excess liquid. Each sample was subjected to four sequential extractions using 25 mL of distilled water for one hour at room temperature with agitation. Samples were squeezed to remove excess solution between extraction cycles. A fifth extraction was performed using pH 7.4 phosphate buffered saline (PBS). Saline is expected to remove a greater amount of pyrithione due to ion exchange. The extract solutions were tested for antimicrobial activity by placing single 20 microliter drops of the solutions at marked locations on an agar culture plate spread with ~3×10^3 CFU (continuous lawn) of S. aureus bacteria. Plates were incubated overnight at 37° C., and the diameter of the “zone of inhibition”, or “ZOI” was measured. […]

The conditions of data set [1]: cited from earlier work.

Turning to `[Na+].[O-][n+]1ccccc1[S-]` [SP, sodium pyrithione], the results for the ZOI with S. aureus bacteria (0.01% SP control solution) and in the data set on S. aureus bacteria (0.1% SP control solution) were 12 mm and 26 mm, respectively. Moreover, the “water solubility (aqueous solutions possible)” value in data set [1] (aqueous) is listed as above 50 wt %.

Regarding Zinc pyrithione, the “max. solubility in water” value in data set [1] (water) is 0.0015%.
